{"source": "the NIST ThermoML archive (doi:10.1016/j.tca.2017.11.006)", "note": "± gives the expanded uncertainty stated by the source.", "data": [{"smiles": "[Al]", "note": "[aluminum]", "values": [{"measurement": "Normal melting temperature", "setting": "Crystal 1, DTA", "value": "662.00 ± 2", "unit": "°C"}]}, {"smiles": "[K+].[O-][Cl+3]([O-])([O-])[O-]", "note": "[potassium perchlorate]", "values": [{"measurement": "Triple point temperature", "setting": "Crystal 2, DSC", "value": "579.15 ± 2", "unit": "K"}]}]}
